≈ marks a conversion by molar mass, not a printed value.
Columns and labels:
Swiss female albino mice = test: Oral and intraperitoneal acute toxicity in mice (LD50, Probits method); assay type: in vivo; conditions: mice
Procedure: 20 Swiss female albino mice are used for this test of the average weight of 20 g (±2), coming from Nossan breeding .
Cages: in Makrolon® with saw dust litter, Number of animals per cage: 5 Acclimation period: 1 week Temperature: 22°C (± 2°C) Humidity : 60%, Diet: pellets for mice produced by Nossan firm, Water ad libitum Fast before the treatment: 16 hours
Oral by gastric route and intraperitoneal.
The substances to be studied: EU11100, EU11102, EU11103, EU11104 are treated with 0.5% carboxymethylcellulose in spring water, for the oral administration, whereas the same substances are intraperitoneally administered in the form of a physiological solution .
For each of the above mentioned substances, a mother suspension is prepared having a concentration in the active ingredient of 250 mg/ml for the oral administration, and analogously a mother suspension is prepared for the intraperitoneal administration having a concentration of the desired active principle of 100 mg/ml.
The following doses are used • a) oral route: 5000 mg/kg • b) intraperitoneal route : 2000 mg/kg
If mortality is observed at the above mentioned doses, other doses are administered in order to obtain a dose-response curve.
5 animals are used for every utilized concentration.
After the administration of the above substances the animals are kept under observation for 14 days , during which the mortality and the behaviour is observed.
LD₅₀ is determined on the base of the cumulative mortality observed in the successive 14 days after the administration by using the Probits method.

Helicobapter pylori [1] = test: Inhibition halos of the bacterial growth (impregnated disks on agar); assay type: cell-based; conditions: for activity against the Helicobapter pylori strains used: 10 strains; for Inhibition halo (mm), Average: average of 10 strains
Procedure: Comparison substance: Metronidazole Solubilization of the substances : All the substances to be studied are dissolved at room temperature in DMSO.
Some commercially available antibiogram disks are so impregnated with the above mentioned compounds that each disk has concentration equal to 10, 1, 0.1, 0.01 µg.
10 strains of Helicobapter pylori are used of recent clinical isolation.
Columbia Blood Agar Base is used, containing 5% of defibrinated horse blood, 2 % of calf serum, 2 vials of Vitox per liter of medium and Vancomicine (10 µg/ml) Trimetoprim lactate(5 µg/ml) and Polimixin B (2.5 U/ml).
0.1 ml of a suspension of the different used strains are uniformly distributed onto Petri plates, containing 20 ml of Columbia Blood Agar base, obtained by taking a sample, by means of a platinum loop, of different colonies from a 48 hours culture, grown in anaerobiosis jars with "Gas Pack", without a catalyst and diluted into a physiological solution.
4 disks per plate, previously impregnated with the substances under examination, are then placed onto the agar layer of each plate.
After 48 hours of anaerobiosis incubation, as above described, the inhibition halos of the bacterial growth, produced by the different activity of the substances inside the agar, are evaluated.

Helicobapter pylori [2] = test: Minimal inhibiting concentration (agar dilution); assay type: cell-based
Procedure: Substances under examination: EU11100, EU11102, EU11103, EU11104. Comparison substance: Metronidazole Solubilization of the substances: All the substances to be studied are dissolved at room temperature in DMSO. […] 10 strains of Helicobapter pylori are used of recent clinical isolation […] The sowing of the bacteria, prepared as described in the preceding test is carried out by means a "multi-point inoculator". After 48 hours incubation under the condition described in the preceding test, the plates are examined and the Minimal Inhibiting Concentration is evaluated, namely that dose corresponding to growth absence.

## Cc1ccc(C(C)(C)C)c(O)c1C(O)c1ncc([N+](=O)[O-])n1C (centres unmarked) [EU11104, 5-nitro-1-methyl-imidazolyl-3-terbutyl-2-hydroxy-6 methyl-phenyl-carbinol]
Swiss female albino mice; intraperitoneal, 2000 mg/kg
  toxicity when intraperitoneally administered: not toxic
Swiss female albino mice; oral, 5000 mg/kg
  toxicity when orally administered: not toxic
Helicobapter pylori [1]; 0.1 µg/disk
  activity against the Helicobapter pylori strains used: active against 4 out of 10 strains
Helicobapter pylori [1]; 1 µg/disk
  activity against the Helicobapter pylori strains used: active against all the Helicobapter pylori used
  Inhibition halo (mm), Average: 24.9 mm
Helicobapter pylori [1]; disk test
  activity against the Helicobapter pylori strains used: active against all the Helicobapter pylori strains used
Helicobapter pylori [1]; 10 µg/disk
  Inhibition halo (mm), Average: 31.5 mm
Helicobapter pylori [1]; strain 1, 0.01 µg/disk
  Inhibition halo (mm) at the concentration (µg/disk): 0 mm
Helicobapter pylori [1]; strain 1, 1 µg/disk
  Inhibition halo (mm) at the concentration (µg/disk): 27 mm
Helicobapter pylori [1]; strain 1, 10 µg/disk
  Inhibition halo (mm) at the concentration (µg/disk): 33 mm
Helicobapter pylori [1]; strain 2, 0.01 µg/disk
  Inhibition halo (mm) at the concentration (µg/disk): 0 mm
Helicobapter pylori [1]; strain 2, 0.1 µg/disk
  Inhibition halo (mm) at the concentration (µg/disk): 0 mm
Helicobapter pylori [1]; strain 2, 1 µg/disk
  Inhibition halo (mm) at the concentration (µg/disk): 22 mm
Helicobapter pylori [1]; strain 2, 10 µg/disk
  Inhibition halo (mm) at the concentration (µg/disk): 30 mm
Helicobapter pylori [1]; strain 3, 0.01 µg/disk
  Inhibition halo (mm) at the concentration (µg/disk): 0 mm
Helicobapter pylori [1]; strain 3, 0.1 µg/disk
  Inhibition halo (mm) at the concentration (µg/disk): 0 mm
Helicobapter pylori [1]; strain 3, 1 µg/disk
  Inhibition halo (mm) at the concentration (µg/disk): 22 mm
Helicobapter pylori [1]; strain 3, 10 µg/disk
  Inhibition halo (mm) at the concentration (µg/disk): 28 mm
Helicobapter pylori [1]; strain 4, 0.01 µg/disk
  Inhibition halo (mm) at the concentration (µg/disk): 0 mm
Helicobapter pylori [1]; strain 4, 1 µg/disk
  Inhibition halo (mm) at the concentration (µg/disk): 30 mm
Helicobapter pylori [1]; strain 4, 10 µg/disk
  Inhibition halo (mm) at the concentration (µg/disk): 36 mm
Helicobapter pylori [1]; strain 5, 0.01 µg/disk
  Inhibition halo (mm) at the concentration (µg/disk): 0 mm
Helicobapter pylori [1]; strain 5, 0.1 µg/disk
  Inhibition halo (mm) at the concentration (µg/disk): 0 mm
Helicobapter pylori [1]; strain 5, 1 µg/disk
  Inhibition halo (mm) at the concentration (µg/disk): 22 mm
Helicobapter pylori [1]; strain 5, 10 µg/disk
  Inhibition halo (mm) at the concentration (µg/disk): 28 mm
Helicobapter pylori [1]; strain 6, 0.01 µg/disk
  Inhibition halo (mm) at the concentration (µg/disk): 0 mm
Helicobapter pylori [1]; strain 6, 0.1 µg/disk
  Inhibition halo (mm) at the concentration (µg/disk): 14 mm
Helicobapter pylori [1]; strain 6, 1 µg/disk
  Inhibition halo (mm) at the concentration (µg/disk): 29 mm
Helicobapter pylori [1]; strain 6, 10 µg/disk
  Inhibition halo (mm) at the concentration (µg/disk): 35 mm
Helicobapter pylori [1]; strain 7, 0.01 µg/disk
  Inhibition halo (mm) at the concentration (µg/disk): 0 mm
Helicobapter pylori [1]; strain 7, 0.1 µg/disk
  Inhibition halo (mm) at the concentration (µg/disk): 0 mm
Helicobapter pylori [1]; strain 7, 1 µg/disk
  Inhibition halo (mm) at the concentration (µg/disk): 22 mm
Helicobapter pylori [1]; strain 7, 10 µg/disk
  Inhibition halo (mm) at the concentration (µg/disk): 26 mm
Helicobapter pylori [1]; strain 8, 0.01 µg/disk
  Inhibition halo (mm) at the concentration (µg/disk): 0 mm
Helicobapter pylori [1]; strain 8, 0.1 µg/disk
  Inhibition halo (mm) at the concentration (µg/disk): 17 mm
Helicobapter pylori [1]; strain 8, 1 µg/disk
  Inhibition halo (mm) at the concentration (µg/disk): 31 mm
Helicobapter pylori [1]; strain 8, 10 µg/disk
  Inhibition halo (mm) at the concentration (µg/disk): 37 mm
Helicobapter pylori [1]; strain 9, 0.01 µg/disk
  Inhibition halo (mm) at the concentration (µg/disk): 0 mm
Helicobapter pylori [1]; strain 9, 0.1 µg/disk
  Inhibition halo (mm) at the concentration (µg/disk): 0 mm
Helicobapter pylori [1]; strain 9, 1 µg/disk
  Inhibition halo (mm) at the concentration (µg/disk): 21 mm
Helicobapter pylori [1]; strain 9, 10 µg/disk
  Inhibition halo (mm) at the concentration (µg/disk): 30 mm
Helicobapter pylori [1]; strain 10, 0.01 µg/disk
  Inhibition halo (mm) at the concentration (µg/disk): 0 mm
Helicobapter pylori [1]; strain 10, 0.1 µg/disk
  Inhibition halo (mm) at the concentration (µg/disk): 0 mm
Helicobapter pylori [1]; strain 10, 1 µg/disk
  Inhibition halo (mm) at the concentration (µg/disk): 23 mm
Helicobapter pylori [1]; strain 10, 10 µg/disk
  Inhibition halo (mm) at the concentration (µg/disk): 32 mm
Helicobapter pylori [2]; 10 strains
  MIC 50%: 0.03 µg/mL (≈ 0.0939 µM)
  MIC 90%: 0.06 µg/mL (≈ 0.188 µM)
  MIC range: 0.015 to 0.016 µg/mL
Helicobapter pylori [2]; in words, compared with Metronidazole
  MIC values: very low MIC values
Helicobapter pylori [2]; strain 1
  M.I.C.: 0.12 µg/mL
Helicobapter pylori [2]; strain 2
  M.I.C.: 0.03 µg/mL
Helicobapter pylori [2]; strain 3
  M.I.C.: 0.06 µg/mL
Helicobapter pylori [2]; strain 4
  M.I.C.: 0.015 µg/mL
Helicobapter pylori [2]; strain 5
  M.I.C.: 0.03 µg/mL
Helicobapter pylori [2]; strain 6
  M.I.C.: 0.03 µg/mL
Helicobapter pylori [2]; strain 7
  M.I.C.: 0.06 µg/mL
Helicobapter pylori [2]; strain 8
  M.I.C.: 0.06 µg/mL
Helicobapter pylori [2]; strain 9
  M.I.C.: 0.06 µg/mL
Helicobapter pylori [2]; strain 10
  M.I.C.: 0.015 µg/mL
